Target: Human Factor D (Homo sapiens (Human), UniProt P00746)
Assay: Human Factor D Assay
Assay type: biochemical
Conditions: not given
How it was run: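 First, compound at various concentrations is mixed with 80 nM (final) human serum Factor D in 50 mM Tris, 1M NaCl, pH 7.5 for 5 min at room temperature.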

Chain of Human Factor D (P00746 26-253): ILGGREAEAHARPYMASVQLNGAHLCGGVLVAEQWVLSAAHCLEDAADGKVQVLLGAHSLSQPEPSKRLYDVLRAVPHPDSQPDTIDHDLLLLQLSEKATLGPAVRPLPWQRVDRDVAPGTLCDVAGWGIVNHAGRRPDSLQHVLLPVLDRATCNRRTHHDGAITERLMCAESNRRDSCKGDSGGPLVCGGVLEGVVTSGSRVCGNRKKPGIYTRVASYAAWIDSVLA

**Q.** CC(=O)c1nn(CC(=O)N2C[C@H](F)C[C@H]2C(=O)NC2CCN(C(=O)c3cn[nH]c3)CC2)c2ccc(-c3cnc(C)nc3)cc12 [Compound 261, (2S,4R)-N-(1-(1H-pyrazole-4-carbonyl)piperidin-4-yl)-1-(2-(3-acetyl-5-(2-methylpyrimidin-5-yl)-1H-indazol-1-yl)acetyl)-4-fluoropyrrolidine-2-carboxamide] was tested. Which IC50 did it give?
**A.** 1 to 10 µM

Same assay, conditions: Human Factor D assay of Example 8; Table 2; read-out: IC50

**Q.** How did the IC50 turn out when CC(=O)c1nn(CC(=O)N2C[C@H](F)C[C@H]2C(=O)Nc2cccc(-c3ccccc3Cl)c2F)c2ccc(-c3cnc4ccnn4c3)cc12 [Compound 237, (2S,4R)-1-(2-(3-acetyl-5-(pyrazolo[1,5-a]pyrimidin-6-yl)-1H-indazol-1-yl)acetyl)-N-(2′-chloro-2-fluorobiphenyl-3-yl)-4-fluoropyrrolidine-2-carboxamide] was run?
**A.** < 1 µM

**Q.** How did the IC50 turn out when CC(=O)c1nn(CC(=O)N2[C@@H]3C[C@@H]3C[C@H]2C(=O)Nc2cccc(Br)n2)c2ccc(-c3cnc4ccnn4c3)cc12 [Compound 238, (1R,3S,5R)-2-(2-(3-acetyl-5-(pyrazolo[1,5-a]pyrimidin-6-yl)-1H-indazol-1-yl)acetyl)-N-(6-bromopyridin-2-yl)-2-azabicyclo[3.1.0] hexane-3-carboxamide] was run?
**A.** < 1 µM

**Q.** For CC(=O)c1nn(CC(=O)N2[C@@H]3C[C@@H]3C[C@H]2C(=O)Nc2cccc(OC(F)(F)F)c2F)c2ccc(-c3cnc4ccnn4c3)cc12 [Compound 239, (1R,3S,5R)-2-(2-(3-acetyl-5-(pyrazolo[1,5-a]pyrimidin-6-yl)-1H-indazol-1-yl)acetyl)-N-(2-fluoro-3-(trifluoromethoxy)phenyl)-2-azabicyclo[3.1.0] hexane-3-carboxamide], which IC50 is on record?
**A.** < 1 µM

**Q.** Which IC50 does the source give for CC(=O)c1nn(CC(=O)N2[C@@H]3C[C@@H]3C[C@H]2C(=O)NCc2cccc(Cl)c2F)c2ccc(-c3cnc4ccnn4c3)cc12 [Compound 240, (1R,3S,5R)-2-(2-(3-acetyl-5-(pyrazolo[1,5-a]pyrimidin-6-yl)-1H-indazol-1-yl)acetyl)-N-(3-chloro-2-fluorobenzyl)-2-azabicyclo[3.1.0] hexane-3-carboxamide] here?
**A.** < 1 µM

**Q.** CC(=O)c1nn(CC(=O)N2C[C@H](F)C[C@H]2C(=O)Nc2cccc(Br)n2)c2ccc(-c3cnc4c(c3)ncn4C)cc12 [Compound 241, (2S,4R)-1-(2-(3-acetyl-5-(3-methyl-3H-imidazo[4,5-b]pyridin-6-yl)-1H-indazol-1-yl)acetyl)-N-(6-bromopyridin-2-yl)-4-fluoropyrrolidine-2-carboxamide] was tested. Which IC50 did it give?
**A.** < 1 µM

**Q.** Which IC50 does the source give for CC(=O)c1nn(CC(=O)N2C[C@H](F)C[C@H]2C(=O)Nc2cccc(Br)n2)c2ccc(-c3ccn4nccc4n3)cc12 [Compound 242, (2S,4R)-1-(2-(3-acetyl-5-(pyrazolo[1,5-a]pyrimidin-5-yl)-1H-indazol-1-yl)acetyl)-N-(6-bromopyridin-2-yl)-4-fluoropyrrolidine-2-carboxamide] here?
**A.** < 1 µM

**Q.** Which IC50 does the source give for CC(=O)c1nn(CC(=O)N2C[C@H](F)C[C@H]2C(=O)Nc2cccc(Br)n2)c2ccc(-c3cnc4cc(C)nn4c3)cc12 [Compound 243, (2S,4R)-1-(2-(3-acetyl-5-(2-methylpyrazolo[1,5-a]pyrimidin-6-yl)-1H-indazol-1-yl)acetyl)-N-(6-bromopyridin-2-yl)-4-fluoropyrrolidine-2-carboxamide] here?
**A.** < 1 µM

**Q.** How did the IC50 turn out when CC(=O)c1nn(CC(=O)N2C[C@H](F)C[C@H]2C(=O)Nc2cccc(Br)n2)c2ccc(N3CCn4c(nnc4C(F)(F)F)C3)cc12 [Compound 244, (2S,4R)-1-(2-(3-acetyl-5-(3-(trifluoromethyl)-5,6-dihydro-[1,2,4]triazolo[4,3-a]pyrazin-7(8H)-yl)-1H-indazol-1-yl)acetyl)-N-(6-bromopyridin-2-yl)-4-fluoropyrrolidine-2-carboxamide] was run?
**A.** < 1 µM

**Q.** With CC(=O)c1nn(CC(=O)N2C[C@H](F)C[C@H]2C(=O)Nc2cccc(Br)n2)c2ccc(-c3cnc4ncccn34)cc12 [Compound 245, (2S,4R)-1-(2-(3-acetyl-5-(imidazo[1,2-a]pyrimidin-3-yl)-1H-indazol-1-yl)acetyl)-N-(6-bromopyridin-2-yl)-4-fluoropyrrolidine-2-carboxamide] as the compound, how does the IC50 read?
**A.** < 1 µM

**Q.** With CSc1cccc(NC(=O)[C@@H]2C[C@@H](F)CN2C(=O)Cn2nc(C(C)=O)c3cc(-c4cnc(C)nc4)ccc32)n1 [Compound 246, (2S,4R)-1-(2-(3-acetyl-5-(2-methylpyrimidin-5-yl)-1H-indazol-1-yl)acetyl)-4-fluoro-N-(6-(methylthio)pyridin-2-yl)pyrrolidine-2-carboxamide] as the compound, how does the IC50 read?
**A.** < 1 µM

**Q.** How did the IC50 turn out when CC(=O)c1nn(CC(=O)N2C[C@H](F)C[C@H]2C(=O)Nc2cccc(F)n2)c2ccc(-c3cnc(C)nc3)cc12 [Compound 247, (2S,4R)-1-(2-(3-acetyl-5-(2-methylpyrimidin-5-yl)-1H-indazol-1-yl)acetyl)-4-fluoro-N-(6-fluoropyridin-2-yl)pyrrolidine-2-carboxamide] was run?
**A.** < 1 µM

**Q.** With CC(=O)c1nn(CC(=O)N2C[C@H](F)C[C@H]2C(=O)Nc2cccc(Br)n2)c2ccc(-c3ccc4ncnn4c3)cc12 [Compound 248, (2S,4R)-1-(2-(5-([1,2,4]triazolo[1,5-a]pyridin-6-yl)-3-acetyl-1H-indazol-1-yl)acetyl)-N-(6-bromopyridin-2-yl)-4-fluoropyrrolidine-2-carboxamide] as the compound, how does the IC50 read?
**A.** < 1 µM

**Q.** How did the IC50 turn out when CC(=O)c1nn(CC(=O)N2C[C@@H](O)C[C@H]2C(=O)Nc2cccc(Br)n2)c2ccc(-c3cnc(C)nc3)cc12 [Compound 249, (2S,4S)-1-(2-(3-Acetyl-5-(2-methylpyrimidin-5-yl)-1H-indazol-1-yl)acetyl)-N-(6-bromopyridin-2-yl)-4-hydroxypyrrolidine-2-carboxamide] was run?
**A.** < 1 µM

**Q.** For CC(=O)c1nn(CC(=O)N2CC(=O)C[C@H]2C(=O)Nc2cccc(Br)n2)c2ccc(-c3cnc(C)nc3)cc12 [Compound 250, (S)-1-(2-(3-Acetyl-5-(2-methylpyrimidin-5-yl)-1H-indazol-1-yl)acetyl)-N-(6-bromopyridin-2-yl)-4-oxopyrrolidine-2-carboxamide], which IC50 is on record?
**A.** < 1 µM

**Q.** For NC(=O)c1nn(CC(=O)N2C[C@H](F)C[C@H]2C(=O)Nc2cccc(Br)n2)c2ccc(-c3[nH]nnc3-c3cncnc3)cc12 [Compound 251, 1-(2-((2S,4R)-2-(6-bromopyridin-2-ylcarbamoyl)-4-fluoropyrrolidin-1-yl)-2-oxoethyl)-5-(4-(pyrimidin-5-yl)-1H-1,2,3-triazol-5-yl)-1H-indazole-3-carboxamide], which IC50 is on record?
**A.** < 1 µM

**Q.** For COCCN(C)CCN1CC(NC(=O)[C@@H]2C[C@@H](F)CN2C(=O)Cn2nc(C(C)=O)c3cc(-c4cnc(C)nc4)ccc32)CC1=O (stereo partly drawn) [Compound 254, (2S,4R)-1-(2-(3-acetyl-5-(2-methylpyrimidin-5-yl)-1H-indazol-1-yl)acetyl)-4-fluoro-N-(1-(2-((2-methoxyethyl)(methyl)amino)ethyl)-5-oxopyrrolidin-3-yl)pyrrolidine-2-carboxamide], which IC50 is on record?
**A.** > 10 µM

**Q.** How did the IC50 turn out when CC(=O)c1nn(CC(=O)N2CC(F)(F)C[C@H]2C(=O)Nc2cccc(Br)n2)c2ccc(-c3cnc(C)nc3)cc12 [Compound 255, (S)-1-(2-(3-acetyl-5-(2-methylpyrimidin-5-yl)-1H-indazol-1-yl)acetyl)-N-(6-bromopyridin-2-yl)-4,4-difluoropyrrolidine-2-carboxamide] was run?
**A.** < 1 µM

**Q.** CC(=O)c1nn(CC(=O)N2C[C@H](F)C[C@H]2C(=O)Nc2cccc(OC(F)(F)F)c2F)c2ccc(-c3cnc4cc(C)nn4c3)cc12 [Compound 256, (2S,4R)-1-(2-(3-acetyl-5-(2-methylpyrazolo[1,5-a]pyrimidin-6-yl)-1H-indazol-1-yl)acetyl)-4-fluoro-N-(2-fluoro-3-(trifluoromethoxy)phenyl)pyrrolidine-2-carboxamide] was tested. Which IC50 did it give?
**A.** < 1 µM

**Q.** CC(=O)c1nn(CC(=O)N2[C@@H]3C[C@@H]3C[C@H]2C(=O)Nc2cccc(Br)n2)c2ccc(-c3cnc4cc(C)nn4c3)cc12 [Compound 257, (1R,3S,5R)-2-(2-(3-acetyl-5-(2-methylpyrazolo[1,5-a]pyrimidin-6-yl)-1H-indazol-1-yl)acetyl)-N-(6-bromopyridin-2-yl)-2-azabicyclo[3.1.0] hexane-3-carboxamide] was tested. Which IC50 did it give?
**A.** < 1 µM

**Q.** For CC(=O)c1nn(CC(=O)N2C[C@H](F)C[C@H]2C(=O)Nc2nc(Cl)cs2)c2ccc(-c3cnc(C)nc3)cc12 [Compound 258, (2S,4R)-1-(2-(3-acetyl-5-(2-methylpyrimidin-5-yl)-1H-indazol-1-yl)acetyl)-N-(4-chlorothiazol-2-yl)-4-fluoropyrrolidine-2-carboxamide], which IC50 is on record?
**A.** < 1 µM

**Q.** How did the IC50 turn out when CC(=O)c1nn(CC(=O)N2C[C@H](F)C[C@H]2C(=O)Nc2cccc(Br)n2)c2ccc(-c3cnc(C4CC4)nc3)cc12 [Compound 259] was run?
**A.** < 1 µM

**Q.** How did the IC50 turn out when CC(=O)c1nn(CC(=O)N2C[C@H](F)C[C@H]2C(=O)Nc2cccc(Br)n2)c2ccc(-c3cnc(N)nc3)cc12 [Compound 260, (2S,4R)-1-(2-(3-acetyl-5-(2-aminopyrimidin-5-yl)-1H-indazol-1-yl)acetyl)-N-(6-bromopyridin-2-yl)-4-fluoropyrrolidine-2-carboxamide] was run?
**A.** < 1 µM

**Q.** With CC(=O)c1nn(CC(=O)N2C[C@H](F)C[C@H]2C(=O)Nc2cccc(Br)n2)c2ccc(-c3cnc4c(C#N)c(C)nn4c3)cc12 [Compound 262, (2S,4R)-1-(2-(3-acetyl-5-(3-cyano-2-methylpyrazolo[1,5-a]pyrimidin-6-yl)-1H-indazol-1-yl)acetyl)-N-(6-bromopyridin-2-yl)-4-fluoropyrrolidine-2-carboxamide] as the compound, how does the IC50 read?
**A.** < 1 µM

**Q.** For CC(=O)c1nn(CC(=O)N2C[C@H](F)C[C@H]2C(=O)Nc2cccc(Br)n2)c2ccc(-c3cnc4c(C#N)cnn4c3)cc12 [Compound 263, (2S,4R)-1-(2-(3-acetyl-5-(3-cyanopyrazolo[1,5-a]pyrimidin-6-yl)-1H-indazol-1-yl)acetyl)-N-(6-bromopyridin-2-yl)-4-fluoropyrrolidine-2-carboxamide], which IC50 is on record?
**A.** < 1 µM

**Q.** CC(=O)c1nn(CC(=O)N2C[C@H](F)C[C@H]2C(=O)Nc2cccc(C(F)(F)F)n2)c2ccc(-c3cnc4cc(C)nn4c3)cc12 [Compound 264, (2S,4R)-1-(2-(3-acetyl-5-(2-methylpyrazolo[1,5-a]pyrimidin-6-yl)-1H-indazol-1-yl)acetyl)-4-fluoro-N-(6-(trifluoromethyl)pyridin-2-yl)pyrrolidine-2-carboxamide] was tested. Which IC50 did it give?
**A.** < 1 µM
